Test results: paper PMC11859031, “Assessment of the In Vitro Biological Activities of Schiff Base-Synthesized Copper Oxide Nanoparticles as an Anti-Diabetic, Anti-Alzheimer, and Anti-Cancer Agent” (Pharmaceutics, 2025)
Values after ≈ are worked out from the molar mass of the structure shown.

Assays:
DPPH radical scavenging = settings: mean ± SE, n = 3
Description: (§1) The 1,1-Diphenyl-2-picryl-hydrazyl (DPPH) radical scavenging activities were evaluated using the method described by Rahman et al. An antioxidant substance capable of donating a hydrogen atom to a solution containing DPPH- can reduce the stable free radical, causing the solution to change color from violet to pale yellow.
The remaining DPPH- radical was quantified by measuring the intensity of a light-purple colored DPPH methanol solution in the visible range at 518 nm using a spectroscopic method. Two mill iliters of a DPPH solution (100 µ M) in ethanol were mixed with 2 mL of the sample (at each concentration). The reaction mixture for each concentration was thoroughly vortexed and then incubated in the dark at room temperature for 30 minutes. The absorbance was then measured spectrophotometrically at 518 nm against a blank (ethanol). For the control, 2 mL of ethanol was added instead of the sample and run simultaneously with the test.
Ascorbic acid was used at the same concentrations as a positive control. P ercent […]
inhibition of the DPPH free radical was calculated. […]

ABTS radical scavenging = settings: mean ± SE, n = 3
Description: The procedure for the 2,2'-azinobis-(3-ethylbenzothiazoline-6-sulfonic acid) (ABTS) […]
solution (7 mM) and potassium persulfate solution (2.4 mM). The working solution was prepared by mixing the two stock solutions in equal quantities and allowing them to react at room temperature in a dark place for 14 hours. The solution was then diluted by mixing 1 mL of ABTS solution with 60 mL of methanol to obtain an absorbance of 0.706 ± 0.01 units at 734 nm using a spectrophotometer. Fresh ABTS solution was prepared for each assay. The tested samples (at each concentration) were allowed to react with 1 mL of the ABTS solution, and the absorbance was taken at 734 nm after 7 minutes using a spectrophotometer. […]

NO radical scavenging = settings: mean ± SE, n = 3
Description: The in vitro biological applications of the SB and SB-CuO-NPs, including antioxidant, scavenging, anti-diabetic, anti-Alzheimer, anti-arthritic, anti-inflammatory, cytotoxic effects, and enzyme inhibition, were assessed using methods described in the literature (See Supplementary Materials).
During the current study, the free radical scavenging capacity of SB-CuO-NPs, SB, and ascorbic acid (positive control) was evaluated using the DPPH, ABTS, and NO radical methods. The scavenging activity is used to predict antioxidant efficacy, a mechanism in which antioxidants inhibit lipid oxidation. The lower IC50 value indicates a stronger ability of the SB-CuO-NPs to act as radical scavengers, whereas the higher IC50 value indicates a lower scavenging activity. […] The lower the IC50 value, the greater the antioxidant activity.

[1] = Iron reducing power (IRP); settings: samples at 100 µg/mL; mean ± SE, n = 3
Description: ammonium molybdate. Methanol (80%) was used in place of the sample for the blank. The tubes were sealed and incubated in a boiling water bath for 90 minutes.
After cooling to room temperature, the absorbance was measured at 695 nm against the blank. […] was used at the same concentrations as a standard. The antioxidant capacity was expressed as mg gallic acid equivalent per gram weight.
The iron reducing power was determined as µg/mL using the method proposed by Oyaizu (1986). In brief, 1ml of the tested sample (at each concentration) was combined with 1mL of 200mM sodium phosphate buffer (pH 6.6) and 1mL of 1% potassium ferricyanide. […] The absorbance was measured at 700nm against a blank prepared without the sample. […] A high absorbance at 700nm indicates a higher reducing power in the reaction mixture.
as §1
The remaining DPPH- radical was quantified by measuring the intensity of a light-purple colored DPPH methanol solution in the visible range at 518 nm using a spectroscopic method. […]

[2] = Total antioxidant capacity (TAC), phosphomolybdenum method; settings: samples at 100 µg/mL; mean ± SE, n = 3
Description: 1. Preparation of SB-CuO-NPs
The copper oxide nanoparticles (CuO-NPs) were biosynthesized using a concentrated anhydrous copper sulfate solution (1 mM) as a metal precursor based […]
dissolved in 100 ml of deionized water to form a 0.1 M concentration. The Schiff base (SB) was mixed with the metal solution in a ratio of 4:1. The SB-CuO-NPs was monitored by a color change. They were dried at 80 °C after centrifuging the colloidal solution at 4000 rpm for 15 min.
2. Characterization of the SB-CuO-NPs
The spectra of the SB-CuO-NPs were characterized using a Shimadzu UV-VIS recording spectrophotometer UV-240 after diluting the samples (10-fold) with deionized water at λ 200 - 800 nm. Their surface zeta potentials were measured using the laser zeta meter (Malvern Zetasizer 2000, Malvern, Worcestershire, UK) following […]
Moreover, their average hydrodynamic sizes were determined using the laser diffraction method with multiple scattering techniques employing dynamic light scattering (DLS) (Malvern Zetasizer Nano ZS, Malvern Instruments Ltd., Malvern, United Kingdom) (Murdock et al., 2008). […]
All biological activities were assessed in the prepared samples at equal concentrations (100 µg/mL). […]
After cooling to room temperature, the absorbance was measured at 695 nm against the blank. […] The antioxidant capacity was expressed as mg gallic acid equivalent per gram weight. […]

Bcl-2 in HepG-2 cells = assay: Bcl-2 ELISA in treated HepG-2 cells; type: cell-based, human; settings: HepG-2 cells treated at the IC50 value, mean ± SE, n = 3
Description: (§2) Following the treatment of HepG-2, Caco-2, A549, and BJ-1 cells with the SB-CuO-NPs at their respective IC50 values, as illustrated in Figure 9 and detailed in Table 5, an assessment of the activities of the caspase-3 and Bcl-2 enzymes was conducted in the treated cells. […] This mechanism ultimately triggers apoptosis. Additionally, the increased activity of caspase-3 results in a decrease in the expression of cyclin D1 and CDK-2 mRNA, thereby promoting the arrest of the G1 phase of the cell cycle. Othman et al. further noted that the biosynthesized M-NPs facilitate apoptosis by inhibiting the expression of the PI3K/AKT and Ras/Raf/ERK protein signaling pathways.
(§3) Invitrogen Corporation, following the manufacturer's instructions.

[3] = test system: human hepatocellular carcinoma (HepG-2) cell line; assay: MTT cytotoxicity, HepG-2
[4] = test system: caspase-3 in HepG-2 cells; assay: Caspase-3 ELISA in treated HepG-2 cells; type: cell-based, human; settings: HepG-2 cells treated at the IC50 value, mean ± SE, n = 3
Description: as §2, §3

Bcl-2 in BJ-1 cells = assay: Bcl-2 ELISA in treated BJ-1 cells; type: cell-based, human; settings: BJ-1 cells treated at the IC50 value, mean ± SE, n = 3
Description: as §2, §3

[5] = test system: human colon cancer (Caco-2) cell line; assay: MTT cytotoxicity, Caco-2
Bcl-2 in A549 cells = assay: Bcl-2 ELISA in treated A549 cells; type: cell-based, human; settings: A549 cells treated at the IC50 value, mean ± SE, n = 3
Description: as §2, §3

MTT cytotoxicity, BJ-1 = settings: human, BJ-1 normal fibroblast cells
[6] = test system: normal human fibroblast (BJ-1) cell line; assay: MTT cytotoxicity, BJ-1; settings: Homo sapiens, Fibroblast, 48 h, read-out: Median Inhibitory Concentration (IC50) BJ-1
caspase-3 in BJ-1 cells = assay: Caspase-3 ELISA in treated BJ-1 cells; type: cell-based, human; settings: BJ-1 cells treated at the IC50 value, mean ± SE, n = 3
Description: as §2, §3

[7] = test system: caspase-3 in Caco-2 cells; assay: Caspase-3 ELISA in treated Caco-2 cells; type: cell-based, human; settings: Caco-2 cells treated at the IC50 value, mean ± SE, n = 3
Description: as §2, §3

[8] = test system: human lung cancer (A549) cell line; assay: MTT cytotoxicity, A549
caspase-3 in A549 cells = assay: Caspase-3 ELISA in treated A549 cells; type: cell-based, human; settings: A549 cells treated at the IC50 value, mean ± SE, n = 3
Description: as §2, §3

Bcl-2 in Caco-2 cells = assay: Bcl-2 ELISA in treated Caco-2 cells; type: cell-based, human; settings: Caco-2 cells treated at the IC50 value, mean ± SE, n = 3
Description: as §2, §3

[9] = target: T1, 5-LOX enzyme (human recombinant) (Homo sapiens, UniProt P09917); assay: 5-Lipoxygenase inhibition assay; type: biochemical; settings: at 100 µg/mL; mean ± SE, n = 3; read-out: 5-LOX Inhib. (%)
T1 construct: purchased Sigma-Aldrich 437996
T1 sequence (P09917 1-674): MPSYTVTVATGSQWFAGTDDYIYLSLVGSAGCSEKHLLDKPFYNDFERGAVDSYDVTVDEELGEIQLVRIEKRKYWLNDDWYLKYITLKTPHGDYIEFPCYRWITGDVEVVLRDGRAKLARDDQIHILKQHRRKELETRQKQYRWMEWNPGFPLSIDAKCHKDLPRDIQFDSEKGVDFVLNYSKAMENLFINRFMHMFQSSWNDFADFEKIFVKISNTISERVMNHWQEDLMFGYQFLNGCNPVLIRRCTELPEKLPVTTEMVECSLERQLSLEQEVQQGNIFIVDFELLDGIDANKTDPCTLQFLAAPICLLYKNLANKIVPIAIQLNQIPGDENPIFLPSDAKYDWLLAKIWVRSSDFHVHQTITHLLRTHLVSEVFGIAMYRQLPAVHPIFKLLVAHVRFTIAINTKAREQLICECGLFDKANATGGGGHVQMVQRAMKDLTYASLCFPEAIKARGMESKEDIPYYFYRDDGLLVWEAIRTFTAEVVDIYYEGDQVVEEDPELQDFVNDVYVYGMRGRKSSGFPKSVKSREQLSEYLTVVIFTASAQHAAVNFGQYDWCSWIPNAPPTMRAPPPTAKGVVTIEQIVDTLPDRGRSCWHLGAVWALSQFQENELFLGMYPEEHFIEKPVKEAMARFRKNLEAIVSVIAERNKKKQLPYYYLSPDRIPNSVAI

O=C1O[C@H]([C@@H](O)CO)C(O)=C1O [Ascorbic Acid, reference compound]
Scavenging activity DPPH Inhib. (%) (DPPH radical scavenging; at 100 µg/mL): 61.68 ± 0.12%
Scavenging activity DPPH IC50 (DPPH radical scavenging): 4.50 ± 0.03 µg/mL
Scavenging activity ABTS Inhib. (%) (ABTS radical scavenging; at 100 µg/mL): 65.43 ± 0.12%
Scavenging activity ABTS IC50 (ABTS radical scavenging): 3.99 ± 0.04 µg/mL
Scavenging activity NO Inhib. (%) (NO radical scavenging; at 100 µg/mL): 53.93 ± 0.12%
Scavenging activity NO IC50 (NO radical scavenging): 5.24 ± 0.02 µg/mL
Antioxidant activity IRP [1]: 66.00 ± 0.13 µg/mL
Antioxidant activity TAC [2]: 83.75 ± 0.13 mg gallic acid/g

COc1cccc2c1C(=O)c1c(O)c3c(c(O)c1C2=O)C[C@@](O)(C(=O)CO)C[C@@H]3O[C@H]1C[C@H](N)[C@H](O)[C@H](C)O1 [Doxorubicin, reference compound]
Bcl-2 (Bcl-2 in HepG-2 cells): 4.00 ± 0.02 ng/mL
viability at 6.25 µg/mL ([3]; HepG2): 74.4%
viability at 12.5 µg/mL ([3]; HepG2): 59%
viability at 25 µg/mL ([3]; HepG2): 34.3%
viability at 50 µg/mL ([3]; HepG2): 18.1%
viability at 100 µg/mL ([3]; HepG2): 9.17%
IC50 ([3]; HepG2, 48 h, read-out: Median Inhibitory Concentration (IC50) HepG-2): 15.5 ± 1.98 µg/mL (≈ 28.5 µM)
Caspase-3 [4]: 306.04 ± 1.23 pg/mL
Bcl-2 (Bcl-2 in BJ-1 cells): 2.72 ± 0.01 ng/mL
viability at 6.25 µg/mL ([5]; Caco-2): 70.2%
viability at 12.5 µg/mL ([5]; Caco-2): 35.2%
viability at 25 µg/mL ([5]; Caco-2): 5.64%
viability at 50 µg/mL ([5]; Caco-2): 4.48%
viability at 100 µg/mL ([5]; Caco-2): 1.3%
IC50 ([5]; Caco-2, 48 h, read-out: Median Inhibitory Concentration (IC50) Caco-2): 11.1 ± 1.09 µg/mL (≈ 20.5 µM)
Bcl-2 (Bcl-2 in A549 cells): 4.51 ± 0.01 ng/mL
viability at 48 h, 6.25 μg/mL (MTT cytotoxicity, BJ-1): 87.4%
viability at 48 h, 12.5 μg/mL (MTT cytotoxicity, BJ-1): 68%
viability at 48 h, 25 μg/mL (MTT cytotoxicity, BJ-1): 42.3%
viability at 48 h, 50 μg/mL (MTT cytotoxicity, BJ-1): 20.1%
viability at 48 h, 100 μg/mL (MTT cytotoxicity, BJ-1): 13.2%
IC50 [6]: 22 ± 1.51 µg/mL (≈ 40.5 µM)
Caspase-3 (caspase-3 in BJ-1 cells): 200.43 ± 0.08 pg/mL
Caspase-3 [7]: 265.13 ± 0.12 pg/mL
viability at 6.25 µg/mL ([8]; A549): 77.4%
viability at 12.5 µg/mL ([8]; A549): 51%
viability at 25 µg/mL ([8]; A549): 24.3%
viability at 50 µg/mL ([8]; A549): 12.1%
viability at 100 µg/mL ([8]; A549): 5.17%
IC50 ([8]; A549, 48 h, read-out: Median Inhibitory Concentration (IC50) A549): 14.4 ± 1.12 µg/mL (≈ 26.4 µM)
Caspase-3 (caspase-3 in A549 cells): 247.96 ± 0.08 pg/mL
Bcl-2 (Bcl-2 in Caco-2 cells): 2.04 ± 0.01 ng/mL

CC(c1cc2ccccc2s1)N(O)C(N)=O (centres unmarked) [Zileuton, reference compound]
inhibition at 100 µg/mL [9]: 46.99 ± 0.13%
